Data on two compounds can be found in paper PMC3480357, “Fragment-Hopping-Based Discovery of a Novel Chemical Series of Proto-Oncogene PIM-1 Kinase Inhibitors” (PLoS ONE, 2012).

Where two headings read alike, the source gives them in different places. Bounds are passed on as bounds.

Common to all, as to experiment: ProQinase kinase panel, % inhibition at fixed concentration
Common to all, as to assay type: biochemical

One experiment addresses AKT1 (Homo sapiens, UniProt P31749). The note with it: read-out: AKT1 percentage of inhibition. The protocol:
(§1) Once compounds 7 and 8 were synthesized, a pairwise comparison was performed to strictly evaluate the real impact of this fragment-hopping where imidazopyridazine is replaced by triazolopyridine.

For a further experiment, the target named is CK1-α1 (Homo sapiens, UniProt P48729). The note with it: average of two data points, read-out: CK1-α1 percentage of inhibition. How it is done:
as §1

The next experiment has as its target MET (Homo sapiens, UniProt P08581). The note with it: read-out: MET percentage of inhibition. The protocol: as §1
For another experiment, the target named is FGF-R1 (Homo sapiens, UniProt P11362). The note with it: average of two data points, read-out: FGF-R1 percentage of inhibition. The protocol: as §1
The target in a further experiment is EGF-R (Homo sapiens, UniProt P00533). The note with it: read-out: EGF-R percentage of inhibition. How it is done:
as §1

A further experiment deals with T1, ARK5 (Homo sapiens, UniProt O60285).
T1 sequence (O60285 1-661): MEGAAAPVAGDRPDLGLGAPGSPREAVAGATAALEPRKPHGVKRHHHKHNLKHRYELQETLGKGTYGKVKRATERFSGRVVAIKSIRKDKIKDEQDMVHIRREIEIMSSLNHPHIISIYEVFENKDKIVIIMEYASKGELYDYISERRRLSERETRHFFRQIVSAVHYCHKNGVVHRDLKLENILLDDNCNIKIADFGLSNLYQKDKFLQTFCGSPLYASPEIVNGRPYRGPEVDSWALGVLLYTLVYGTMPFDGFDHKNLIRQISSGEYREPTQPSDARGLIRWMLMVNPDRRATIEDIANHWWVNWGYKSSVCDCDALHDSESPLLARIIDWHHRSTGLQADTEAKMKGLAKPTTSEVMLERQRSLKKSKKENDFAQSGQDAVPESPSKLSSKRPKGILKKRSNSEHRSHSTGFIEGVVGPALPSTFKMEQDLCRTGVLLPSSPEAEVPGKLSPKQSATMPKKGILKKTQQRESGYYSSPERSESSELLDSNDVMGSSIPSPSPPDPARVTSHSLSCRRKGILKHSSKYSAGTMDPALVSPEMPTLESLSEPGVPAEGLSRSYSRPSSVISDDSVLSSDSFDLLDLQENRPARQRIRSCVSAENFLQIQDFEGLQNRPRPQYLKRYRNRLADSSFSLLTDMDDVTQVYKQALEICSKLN
The note with it: read-out: ARK5 percentage of inhibition. The protocol: as §1

The target of a further experiment is IGF1-R (Homo sapiens, UniProt P08069). The note with it: read-out: IGF1-R percentage of inhibition. How it is done: as §1
The next experiment addresses T2, SGK1 (Homo sapiens, UniProt O00141).
T2 sequence (O00141 1-431): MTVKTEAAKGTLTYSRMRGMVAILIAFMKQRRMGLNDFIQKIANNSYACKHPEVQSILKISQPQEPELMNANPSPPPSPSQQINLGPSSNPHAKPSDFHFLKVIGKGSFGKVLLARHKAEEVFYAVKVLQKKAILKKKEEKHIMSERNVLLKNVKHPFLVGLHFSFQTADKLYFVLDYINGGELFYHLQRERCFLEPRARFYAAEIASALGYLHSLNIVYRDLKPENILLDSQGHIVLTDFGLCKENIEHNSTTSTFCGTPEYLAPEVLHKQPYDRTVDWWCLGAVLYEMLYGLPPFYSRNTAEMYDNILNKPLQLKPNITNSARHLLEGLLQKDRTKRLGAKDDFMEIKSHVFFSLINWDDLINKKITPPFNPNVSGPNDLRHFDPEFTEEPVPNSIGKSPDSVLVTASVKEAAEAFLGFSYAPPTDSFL
The protocol: as §1

Another experiment has as its target JAK2 (Homo sapiens, UniProt O60674). The note with it: average of two data points, read-out: JAK2 percentage of inhibition. How it is done:
as §1

The next experiment has as its target PDGFR-α (Homo sapiens, UniProt P16234). The protocol: as §1
Another experiment has as its target PAK1 (Homo sapiens, UniProt Q13153). The note with it: read-out: PAK1 percentage of inhibition. How it is done: as §1
A further experiment addresses B-RAF-V600E (Homo sapiens, UniProt P15056, V600E). The note with it: read-out: B-RAF-V600E percentage of inhibition. How it is done:
as §1

Another experiment addresses T3, MST1 (Homo sapiens, UniProt Q13043).
T3 sequence (Q13043 1-487): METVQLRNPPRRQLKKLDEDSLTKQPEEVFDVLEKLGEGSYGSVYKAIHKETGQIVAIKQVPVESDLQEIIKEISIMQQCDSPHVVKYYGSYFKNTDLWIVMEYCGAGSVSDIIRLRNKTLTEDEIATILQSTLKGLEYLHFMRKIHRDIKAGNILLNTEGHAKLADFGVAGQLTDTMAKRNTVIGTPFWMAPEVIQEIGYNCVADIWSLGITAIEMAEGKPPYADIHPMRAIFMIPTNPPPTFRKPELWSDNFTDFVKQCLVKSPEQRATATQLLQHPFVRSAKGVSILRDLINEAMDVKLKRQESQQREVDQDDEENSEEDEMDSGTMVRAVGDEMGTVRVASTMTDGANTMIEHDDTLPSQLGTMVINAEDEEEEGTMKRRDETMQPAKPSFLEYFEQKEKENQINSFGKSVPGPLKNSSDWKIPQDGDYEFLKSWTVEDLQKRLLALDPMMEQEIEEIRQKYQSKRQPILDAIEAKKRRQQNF
The note with it: average of two data points, read-out: MST1 percentage of inhibition. The protocol:
as §1

In the next experiment the target is RPS6KA1 (Homo sapiens, UniProt Q15418). The note with it: read-out: RPS6KA1 percentage of inhibition. The protocol:
as §1

Another experiment deals with DYRK1A (Homo sapiens, UniProt Q13627). The note with it: average of two data points, read-out: DYRK1A percentage of inhibition. The protocol:
as §1

Where [1] appears, read: inhibitor at 5 µM, average of two data points.
Setting [2] is: compound 8 (5 µM) versus compound 3 (10 µM).
Where [3] appears, read: compound 8 (5 µM) vs compound 3 (10 µM).

PDGFR-α, sequence (P16234 24-1089, species assumed): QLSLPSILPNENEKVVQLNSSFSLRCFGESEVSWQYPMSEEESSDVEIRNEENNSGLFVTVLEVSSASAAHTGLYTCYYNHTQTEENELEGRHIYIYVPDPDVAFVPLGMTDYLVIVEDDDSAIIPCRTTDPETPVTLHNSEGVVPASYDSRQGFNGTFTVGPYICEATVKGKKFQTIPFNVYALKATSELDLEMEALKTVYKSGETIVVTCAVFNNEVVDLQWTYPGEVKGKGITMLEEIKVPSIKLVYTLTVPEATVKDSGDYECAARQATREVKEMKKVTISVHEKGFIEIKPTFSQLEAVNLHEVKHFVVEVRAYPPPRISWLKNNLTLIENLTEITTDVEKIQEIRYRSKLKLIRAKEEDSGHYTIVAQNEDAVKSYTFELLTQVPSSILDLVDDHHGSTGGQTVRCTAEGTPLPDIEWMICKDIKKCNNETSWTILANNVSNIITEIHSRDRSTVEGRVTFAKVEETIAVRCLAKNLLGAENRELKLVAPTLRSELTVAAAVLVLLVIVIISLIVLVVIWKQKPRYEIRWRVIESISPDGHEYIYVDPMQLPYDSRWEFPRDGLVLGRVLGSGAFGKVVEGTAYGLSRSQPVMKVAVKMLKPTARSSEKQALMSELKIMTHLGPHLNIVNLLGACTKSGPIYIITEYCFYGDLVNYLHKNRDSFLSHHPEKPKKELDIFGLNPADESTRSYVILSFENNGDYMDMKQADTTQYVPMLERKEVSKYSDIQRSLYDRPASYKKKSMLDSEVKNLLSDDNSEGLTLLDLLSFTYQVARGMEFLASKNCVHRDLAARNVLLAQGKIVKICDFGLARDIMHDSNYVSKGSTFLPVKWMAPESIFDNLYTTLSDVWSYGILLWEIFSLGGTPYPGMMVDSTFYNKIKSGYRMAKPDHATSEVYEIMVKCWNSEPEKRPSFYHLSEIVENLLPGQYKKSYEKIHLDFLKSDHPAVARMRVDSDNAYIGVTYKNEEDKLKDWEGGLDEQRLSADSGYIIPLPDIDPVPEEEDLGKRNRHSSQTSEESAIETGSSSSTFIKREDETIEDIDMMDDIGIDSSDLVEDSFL
JAK2, sequence (O60674 whole entry, species assumed): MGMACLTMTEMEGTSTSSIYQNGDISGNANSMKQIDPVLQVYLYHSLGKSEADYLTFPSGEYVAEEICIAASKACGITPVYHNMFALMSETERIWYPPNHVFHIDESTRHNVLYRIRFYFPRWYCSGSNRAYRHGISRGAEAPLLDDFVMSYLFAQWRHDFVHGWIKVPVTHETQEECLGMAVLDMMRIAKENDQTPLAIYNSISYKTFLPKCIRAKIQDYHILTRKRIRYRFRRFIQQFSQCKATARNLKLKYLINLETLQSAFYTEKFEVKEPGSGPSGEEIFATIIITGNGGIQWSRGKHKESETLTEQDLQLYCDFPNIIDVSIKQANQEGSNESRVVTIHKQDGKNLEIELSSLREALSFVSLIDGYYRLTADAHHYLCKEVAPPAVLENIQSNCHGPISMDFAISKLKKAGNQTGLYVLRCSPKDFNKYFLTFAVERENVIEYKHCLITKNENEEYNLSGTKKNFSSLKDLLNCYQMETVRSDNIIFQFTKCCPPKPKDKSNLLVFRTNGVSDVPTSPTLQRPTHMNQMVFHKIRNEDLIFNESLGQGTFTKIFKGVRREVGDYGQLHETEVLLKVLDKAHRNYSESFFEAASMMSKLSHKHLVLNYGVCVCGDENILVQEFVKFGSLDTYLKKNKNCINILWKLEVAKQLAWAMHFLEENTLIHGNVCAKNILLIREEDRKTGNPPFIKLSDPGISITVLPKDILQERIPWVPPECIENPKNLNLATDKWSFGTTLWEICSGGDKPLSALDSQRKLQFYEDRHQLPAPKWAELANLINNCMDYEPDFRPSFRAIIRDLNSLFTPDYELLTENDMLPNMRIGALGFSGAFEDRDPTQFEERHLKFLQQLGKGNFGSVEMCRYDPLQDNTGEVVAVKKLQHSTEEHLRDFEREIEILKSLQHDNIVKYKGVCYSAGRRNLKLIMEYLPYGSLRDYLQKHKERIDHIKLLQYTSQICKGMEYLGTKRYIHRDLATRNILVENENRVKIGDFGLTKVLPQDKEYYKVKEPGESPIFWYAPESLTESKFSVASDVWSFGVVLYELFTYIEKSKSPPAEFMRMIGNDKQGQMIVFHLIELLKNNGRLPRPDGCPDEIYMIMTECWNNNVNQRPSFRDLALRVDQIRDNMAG
MET, sequence (P08581 25-1390): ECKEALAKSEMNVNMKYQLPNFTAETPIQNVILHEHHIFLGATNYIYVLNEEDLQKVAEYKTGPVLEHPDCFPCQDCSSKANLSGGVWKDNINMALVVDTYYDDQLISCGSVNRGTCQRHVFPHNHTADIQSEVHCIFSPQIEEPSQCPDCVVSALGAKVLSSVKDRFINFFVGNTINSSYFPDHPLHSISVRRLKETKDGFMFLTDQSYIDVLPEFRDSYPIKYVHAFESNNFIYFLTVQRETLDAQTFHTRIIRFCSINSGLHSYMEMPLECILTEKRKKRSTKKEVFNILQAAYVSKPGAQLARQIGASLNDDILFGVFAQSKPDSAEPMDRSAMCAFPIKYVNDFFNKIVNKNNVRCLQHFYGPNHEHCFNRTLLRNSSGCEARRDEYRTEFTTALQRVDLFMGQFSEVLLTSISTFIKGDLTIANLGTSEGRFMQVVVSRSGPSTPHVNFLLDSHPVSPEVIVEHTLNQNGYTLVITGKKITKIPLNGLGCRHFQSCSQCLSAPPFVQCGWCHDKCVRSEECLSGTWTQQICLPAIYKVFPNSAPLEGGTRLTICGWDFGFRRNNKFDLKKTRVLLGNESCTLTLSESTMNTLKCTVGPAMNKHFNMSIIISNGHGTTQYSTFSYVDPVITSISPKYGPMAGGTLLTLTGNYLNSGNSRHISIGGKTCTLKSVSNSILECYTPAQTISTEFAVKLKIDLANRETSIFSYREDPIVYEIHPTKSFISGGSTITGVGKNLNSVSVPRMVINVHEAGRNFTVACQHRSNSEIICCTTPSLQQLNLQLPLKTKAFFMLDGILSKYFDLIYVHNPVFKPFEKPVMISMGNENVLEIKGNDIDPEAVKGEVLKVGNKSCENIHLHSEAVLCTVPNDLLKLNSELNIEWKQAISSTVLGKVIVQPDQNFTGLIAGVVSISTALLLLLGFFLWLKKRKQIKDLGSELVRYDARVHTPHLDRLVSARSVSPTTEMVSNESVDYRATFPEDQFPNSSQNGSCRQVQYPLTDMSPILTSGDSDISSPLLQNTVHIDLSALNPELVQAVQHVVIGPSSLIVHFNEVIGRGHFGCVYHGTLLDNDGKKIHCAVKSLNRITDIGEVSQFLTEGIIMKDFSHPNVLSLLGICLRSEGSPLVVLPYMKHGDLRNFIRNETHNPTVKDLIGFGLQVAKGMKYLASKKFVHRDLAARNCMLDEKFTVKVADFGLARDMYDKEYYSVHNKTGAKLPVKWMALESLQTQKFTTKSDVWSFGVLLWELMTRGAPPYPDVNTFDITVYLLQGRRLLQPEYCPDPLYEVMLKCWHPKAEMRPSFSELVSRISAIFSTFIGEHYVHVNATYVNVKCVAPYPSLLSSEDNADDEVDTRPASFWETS
AKT1, sequence (P31749 whole entry, species assumed, the tested form may be a part): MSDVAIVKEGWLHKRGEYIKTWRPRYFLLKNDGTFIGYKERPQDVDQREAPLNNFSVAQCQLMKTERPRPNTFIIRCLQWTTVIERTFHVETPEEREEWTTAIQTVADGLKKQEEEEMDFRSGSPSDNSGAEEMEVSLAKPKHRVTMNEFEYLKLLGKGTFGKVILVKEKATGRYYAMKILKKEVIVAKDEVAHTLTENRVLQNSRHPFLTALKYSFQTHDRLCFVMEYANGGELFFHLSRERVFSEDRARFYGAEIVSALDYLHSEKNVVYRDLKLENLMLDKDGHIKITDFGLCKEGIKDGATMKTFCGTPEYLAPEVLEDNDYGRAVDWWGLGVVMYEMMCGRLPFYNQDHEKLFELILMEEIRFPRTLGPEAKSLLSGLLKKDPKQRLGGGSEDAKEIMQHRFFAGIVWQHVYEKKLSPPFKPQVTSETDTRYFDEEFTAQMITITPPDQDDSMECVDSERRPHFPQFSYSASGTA
PAK1, sequence (Q13153 whole entry): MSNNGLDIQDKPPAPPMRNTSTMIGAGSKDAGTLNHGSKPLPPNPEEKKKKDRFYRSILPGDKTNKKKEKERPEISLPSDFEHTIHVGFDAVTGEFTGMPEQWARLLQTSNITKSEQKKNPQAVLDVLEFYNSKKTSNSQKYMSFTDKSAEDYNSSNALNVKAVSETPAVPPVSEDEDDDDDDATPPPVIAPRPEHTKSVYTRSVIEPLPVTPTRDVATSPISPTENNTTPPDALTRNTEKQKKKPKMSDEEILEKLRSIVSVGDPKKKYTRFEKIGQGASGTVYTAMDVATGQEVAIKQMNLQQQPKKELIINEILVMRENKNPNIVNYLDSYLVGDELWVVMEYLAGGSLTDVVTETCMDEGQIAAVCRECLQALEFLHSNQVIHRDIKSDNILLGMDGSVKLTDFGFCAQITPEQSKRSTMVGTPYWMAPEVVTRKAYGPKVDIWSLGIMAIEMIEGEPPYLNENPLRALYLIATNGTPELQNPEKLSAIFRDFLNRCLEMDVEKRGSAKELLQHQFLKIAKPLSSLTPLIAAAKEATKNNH
CK1-α1, sequence (P48729 whole entry): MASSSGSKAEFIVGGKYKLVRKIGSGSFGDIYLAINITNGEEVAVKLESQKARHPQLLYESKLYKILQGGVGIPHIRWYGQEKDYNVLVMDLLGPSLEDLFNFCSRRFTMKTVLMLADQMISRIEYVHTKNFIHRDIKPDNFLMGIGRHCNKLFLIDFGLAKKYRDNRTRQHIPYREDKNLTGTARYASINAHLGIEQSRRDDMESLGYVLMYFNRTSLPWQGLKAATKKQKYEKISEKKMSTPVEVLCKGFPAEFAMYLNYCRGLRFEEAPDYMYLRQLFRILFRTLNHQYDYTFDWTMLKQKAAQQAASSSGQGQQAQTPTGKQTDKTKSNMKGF

In the case of `CN1CCC(CNc2ccc3ncc(-c4cccc(OC(F)(F)F)c4)n3n2)CC1` [Compound 3, reference compound], the inhibition at 10 µM was 0% on AKT1; 0% at CK1-α1 (inhibitor at 10 µM); 12% at MET; 65% at FGF-R1 (inhibitor at 10 µM); 32% at EGF-R; 42% on ARK5. The inhibition at 10 µM at IGF1-R was found to be 53%; on SGK1 (inhibitor at 10 µM, average of two data points, read-out: SGK1 percentage of inhibition) it was 55%; on JAK2 (inhibitor at 10 µM) it was 3%; on PDGFR-α (read-out: PDGFR-α percentage of inhibition), 92%; on B-RAF-V600E it was 41%; at MST1 (inhibitor at 10 µM), 60%. Moreover, the inhibition at 10 µM came out at 48% on RPS6KA1 and 19% at DYRK1A (inhibitor at 10 µM). Further, the inhibition at 5 µM on PAK1 came out at 8%.

Regarding `CN1CCC(CNc2ccc3nnn(-c4cccc(OC(F)(F)F)c4)c3n2)CC1` [Compound 8, (1-Methyl-piperidin-4-ylmethyl)-[3-(3-trifluoromethoxy-phenyl)-3H-[1], [2], [3]triazolo[4,5-b]pyridin-5-yl]-amine], the inhibition at 5 µM on AKT1 (setting [1]) stood at 0%; on CK1-α1 (inhibitor at 5 µM) it was 8%; at MET (setting [1]), 6%; at FGF-R1 (inhibitor at 5 µM), 16%; at EGF-R (setting [1]), 18%; at ARK5 (setting [1]) it was 18%. In addition, the inhibition at 5 µM was found to be 25% at IGF1-R (setting [1]); 0% on SGK1 (inhibitor at 5 µM, average of two data points, read-out: SGK1 percentage of inhibition); 0% on JAK2 (inhibitor at 5 µM); 20% at PDGFR-α (inhibitor at 5 µM, average of two data points, read-out: PDGFR-α percentage of inhibition); 2% on PAK1 (setting [1]); 10% on B-RAF-V600E (setting [1]). Moreover, the inhibition at 5 µM worked out at 20% on MST1 (inhibitor at 5 µM), 37% on RPS6KA1 (setting [1]) and 3% at DYRK1A (inhibitor at 5 µM). On SGK1 (setting [2]), the “SGK1 increment in percentage of inhibition” value was over 50%. Further, the “SGK1 improvement in percentage of inhibition” value on SGK1 (setting [3]) is “c (This designation indicates that the improvement in percentage of inhibition was greater than 50%)”. Moreover, the “PDGFR-α increment in percentage of inhibition” value on PDGFR-α (setting [2]) is on record as over 50%. The “PDGFR-α improvement in percentage of inhibition” value at PDGFR-α (setting [3]) is given as “c (This designation indicates that the improvement in percentage of inhibition was greater than 50%)”.
